The conditions of data set [1]: reported in literature; cited from earlier work.
For data set [2] the following is noted: reported in literature; cited from earlier work. The source holds these as a separate data set.
The subject of data set [3] is TNF-α in human peripheral blood mononuclear cells (hPBMCs). Put plainly: Inhibitory activity against TNF-α in human peripheral blood mononuclear cells. In kind it is cell-based. To be noted: PBMC, TNF-α in supernatant, 1 ng/mL LPS, 24 hours, read-out: hPBMC IC50. The source says:
In Vitro Detection of the Inhibitory Activity of Compounds Against TNF-α in Human Peripheral Blood Mononuclear Cells
Experimental objective: to express the anti-inflammatory activity at the cellular level of the test compound based on the level of TNF-α in human peripheral blood mononuclear cells (hPBMCs).
Procedure: • 1. Normal human whole blood was collected into an EDTA anticoagulation tube; • 2. The PBMCs were separated by Ficoll density gradient centrifugation, and then counted. The cell concentration was adjusted to 2×10^6/mL; • 3. To each well of a U-bottomed 96-well plate were added 2×10^5 cells, 1 ng/mL LPS, and DMSO solutions of compound at concentrations of 100 μM, 10 μM, 1 μM, 100 nM, 10 nM, 1 nM, 100 pM and 10 pM, 200 μL per well; • 4. The mixture was incubated for 24 hours, and then the supernatant was collected; • 5. The level of TNF-α in supernatant was detected by ELIZA, Graphpad Prism software was used to fit inhibition curves and IC50 was calculated.

Another data set has as its target CYP1A2 (Homo sapiens (Human), UniProt P05177). Put plainly: biochemical. In kind it is in vitro ADME. Here is the method:
(§1) Inhibitory Effect on the Activity of Isoenzymes (CYP1A2, CYP2C9, CYP2C19, CYP2D6 and CYP3A4) of Human Liver Microsomal Cytochrome P450
(§2) A total of 5 specific probe substrates of 5 isoenzymes of CYP, namely phenacetin (CYP1A2), diclofenac (CYP2C9), (S)-mephenytoin (CYP2C19), dextromethorphan (CYP2D6) and midazolam (CYP3A4) are each co-incubated with human liver microsomes and test compound, and then reduced nicotinamide adenine dinucleotide phosphate (NADPH) was added to initiate the reaction.

The target of a further data set is CYP2C9 (Homo sapiens (Human), UniProt P11712). The data set can be described thus: Inhibition of human liver microsomal cytochrome P450 isoenzyme CYP2C9. To be noted: human liver microsomes, probe substrate diclofenac. Type of data set: in vitro ADME. The procedure: as §1, §2
CYP2C9, sequence (P11712 whole entry): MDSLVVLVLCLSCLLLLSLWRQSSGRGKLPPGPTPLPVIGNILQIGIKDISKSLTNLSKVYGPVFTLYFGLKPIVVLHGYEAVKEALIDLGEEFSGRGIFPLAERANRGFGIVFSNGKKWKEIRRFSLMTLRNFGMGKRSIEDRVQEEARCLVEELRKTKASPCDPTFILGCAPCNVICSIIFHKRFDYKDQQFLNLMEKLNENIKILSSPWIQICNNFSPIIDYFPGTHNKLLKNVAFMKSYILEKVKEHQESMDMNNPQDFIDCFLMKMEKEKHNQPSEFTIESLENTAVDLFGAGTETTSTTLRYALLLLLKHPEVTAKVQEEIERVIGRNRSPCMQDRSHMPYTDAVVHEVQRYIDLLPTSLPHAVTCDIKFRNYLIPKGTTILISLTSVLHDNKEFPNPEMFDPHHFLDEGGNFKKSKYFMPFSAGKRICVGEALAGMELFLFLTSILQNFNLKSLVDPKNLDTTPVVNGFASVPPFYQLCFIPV
A further data set addresses CYP2C19 (Homo sapiens (Human), UniProt P33261). The data set can be described thus: Inhibition of human liver microsomal cytochrome P450 isoenzyme CYP2C19. In kind it is in vitro ADME. To be noted: human liver microsomes, probe substrate (S)-mephenytoin. Here is the method:
as §1, §2

The target of the next data set is CYP2D6 (Homo sapiens (Human), UniProt P10635). The data set can be described thus: Inhibition of human liver microsomal cytochrome P450 isoenzyme CYP2D6. Type of data set: in vitro ADME. To be noted: human liver microsomes, probe substrate dextromethorphan. The procedure:
as §1, §2

The target in a further data set is CYP3A4 (Homo sapiens (Human), UniProt P08684). Put plainly: Inhibition of human liver microsomal cytochrome P450 isoenzyme CYP3A4. Type of data set: in vitro ADME. To be noted: human liver microsomes, probe substrate midazolam. Here is the method:
as §1, §2

Data set [4] can be described thus: Pharmacokinetic experiment in beagle dogs. Type of data set: in vivo. To be noted: male, dog, plasma. The procedure:
Pharmacokinetic Experiment in Beagle Dogs
In this study, male beagle dogs were selected as test animals, and liquid chromatography-tandem mass spectrometry (LC-MS/MS) method was used for quantitatively measuring the drug concentration in plasma of beagle dogs at different time points after intravenous injection or oral administration of compound WX036 so as to evaluate the pharmacokinetic characteristics of the compound WX036 in beagle dogs.
The clear solution of compound WX036 was injected into two 10-12 kg beagle dogs via the cephalic vein or saphenous vein, and the clear solution of test compound was administered intragastrically to two 10-12 kg beagle dogs (overnight fasted). The animals were all subjected to approximately 500 μL of blood collection each time from peripheral veins at 0.0333, 0.0833, 0.25, 0.5, 1, 2, 4, 6, 8, and 24 hours post-dose, and the blood was transferred into commercial centrifuge tubes containing 0.85-1.15 mg of K2 EDTA*2H2O anticoagulant, and plasma was taken by centrifugation at 3000 g for 10 minutes at 4° C. The plasma concentration was measured by LC-MS/MS method, and the relevant pharmacokinetic parameters were calculated by WinNonlin™ Version 6.3 (Pharsight, Mountain View, CA) pharmacokinetic software using non-compartmental model linear logarithmic trapezoid method.

Setting [5] is: intravenous injection 0.5 mg/kg.

CYP1A2, sequence (P05177 whole entry): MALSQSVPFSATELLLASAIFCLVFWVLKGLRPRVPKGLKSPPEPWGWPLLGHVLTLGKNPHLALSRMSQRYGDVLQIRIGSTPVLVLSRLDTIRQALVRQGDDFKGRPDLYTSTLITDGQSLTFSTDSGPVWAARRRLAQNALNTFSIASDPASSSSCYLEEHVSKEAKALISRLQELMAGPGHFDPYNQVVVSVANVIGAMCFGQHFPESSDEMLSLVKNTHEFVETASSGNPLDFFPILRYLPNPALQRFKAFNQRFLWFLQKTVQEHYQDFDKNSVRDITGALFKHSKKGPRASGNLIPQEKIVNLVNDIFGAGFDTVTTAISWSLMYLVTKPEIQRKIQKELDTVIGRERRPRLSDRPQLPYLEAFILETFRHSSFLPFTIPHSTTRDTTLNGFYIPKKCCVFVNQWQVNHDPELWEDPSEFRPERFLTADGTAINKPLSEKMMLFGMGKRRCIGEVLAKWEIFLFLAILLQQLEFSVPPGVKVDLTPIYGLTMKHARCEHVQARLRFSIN
CYP2C19, sequence (P33261 whole entry): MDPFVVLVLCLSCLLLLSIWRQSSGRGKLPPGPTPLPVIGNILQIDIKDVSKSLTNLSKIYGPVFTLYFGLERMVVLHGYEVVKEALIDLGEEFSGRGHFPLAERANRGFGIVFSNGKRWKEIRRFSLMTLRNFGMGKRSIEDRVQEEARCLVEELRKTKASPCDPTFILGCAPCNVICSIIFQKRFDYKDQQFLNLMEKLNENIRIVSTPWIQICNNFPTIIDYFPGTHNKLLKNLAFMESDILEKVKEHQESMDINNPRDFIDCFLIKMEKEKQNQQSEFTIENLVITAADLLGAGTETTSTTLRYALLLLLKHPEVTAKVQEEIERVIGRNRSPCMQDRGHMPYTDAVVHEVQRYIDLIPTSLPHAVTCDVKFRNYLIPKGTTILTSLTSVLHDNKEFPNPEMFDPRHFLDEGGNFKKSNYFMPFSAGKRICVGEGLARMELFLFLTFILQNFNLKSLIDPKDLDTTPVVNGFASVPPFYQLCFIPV
CYP2D6, sequence (P10635 whole entry): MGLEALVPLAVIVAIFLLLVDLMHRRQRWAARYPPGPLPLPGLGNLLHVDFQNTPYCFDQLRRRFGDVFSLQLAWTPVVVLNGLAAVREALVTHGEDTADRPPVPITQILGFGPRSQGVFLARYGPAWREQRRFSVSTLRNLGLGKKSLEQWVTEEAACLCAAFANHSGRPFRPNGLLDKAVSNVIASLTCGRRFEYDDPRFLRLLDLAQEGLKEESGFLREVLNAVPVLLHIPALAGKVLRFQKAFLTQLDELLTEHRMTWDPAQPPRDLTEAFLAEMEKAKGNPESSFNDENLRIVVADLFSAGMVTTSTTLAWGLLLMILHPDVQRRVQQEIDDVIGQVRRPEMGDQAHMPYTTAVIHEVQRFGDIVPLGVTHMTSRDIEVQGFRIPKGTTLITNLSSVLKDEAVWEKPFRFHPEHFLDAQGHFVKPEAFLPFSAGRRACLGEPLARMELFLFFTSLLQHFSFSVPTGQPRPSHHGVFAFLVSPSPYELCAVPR
CYP3A4, sequence (P08684 whole entry): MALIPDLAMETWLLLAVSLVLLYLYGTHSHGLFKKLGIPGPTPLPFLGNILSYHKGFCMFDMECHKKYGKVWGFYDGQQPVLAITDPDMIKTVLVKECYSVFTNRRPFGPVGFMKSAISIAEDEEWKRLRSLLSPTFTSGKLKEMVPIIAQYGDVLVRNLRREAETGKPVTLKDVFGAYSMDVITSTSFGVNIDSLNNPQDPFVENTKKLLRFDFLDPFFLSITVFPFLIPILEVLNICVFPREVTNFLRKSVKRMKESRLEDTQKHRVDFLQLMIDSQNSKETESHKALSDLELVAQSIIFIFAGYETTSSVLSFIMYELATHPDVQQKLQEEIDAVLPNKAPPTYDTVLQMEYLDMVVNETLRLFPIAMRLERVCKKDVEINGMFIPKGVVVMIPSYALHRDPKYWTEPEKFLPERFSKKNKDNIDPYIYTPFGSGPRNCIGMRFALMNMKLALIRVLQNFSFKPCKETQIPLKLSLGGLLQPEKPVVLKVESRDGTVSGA

Turning to `COc1cc2c(cc1OC)-c1c/c(=N\c3c(C)cc(C)cc3C)n(CCNC(N)=O)c(=O)n1CC2` [RPL554], the solubility entry in [1] is recorded as “poor”. Moreover, the plasma clearance result in data set [2] was “high”.
With `COc1cc2c(cc1OC)-c1cc(Oc3c(C(C)C)cccc3C(C)C)nc(=O)n1CC2` [RPL565], the solubility entry in [1] is recorded as “poor”. In data set [2], the plasma clearance result was “high”.
Regarding `CCOc1cc2c(cc1OC)-c1c/c(=N\c3c(C)cc(C)cc3C)n(CCNc3nc[nH]n3)c(=O)n1CC2` [WX003], the IC50 in data set [3] worked out at 3.1 nM.
Take `CCOc1cc2c(cc1OC)-c1c/c(=N\c3c(C)cc(C)cc3C)n(CCNc3nc[nH]n3)c(=O)n1CCC2` [WX004]: the half-inhibitory concentration (IC50) in data set [3] was determined as 0.33 nM.
Still for that read-out and setting: as for `CCOc1cc2c(cc1OC)-c1c/c(=N\c3c(C)cc(C)cc3C)n(CCNC(=O)c3nnc[nH]3)c(=O)n1CC2` [WX015], the figure is 0.36 nM; as for `CCOc1cc2c(cc1OC)-c1c/c(=N\c3c(C)cc(C)cc3C)n(CCNC(=O)c3cnn[nH]3)c(=O)n1CC2` [WX016], 2.8 nM; as for `CCOc1cc2c(cc1OC)-c1c/c(=N\c3c(C)cc(C)cc3C)n(CCNC(=O)c3ccn[nH]3)c(=O)n1CC2` [WX018], 0.09 nM.
Regarding `CCOc1cc2c(cc1OC)-c1c/c(=N\c3c(C)cc(C)cc3C)n(CCNC(=O)c3[nH]nnc3OC)c(=O)n1CC2` [WX026], the IC50 against CYP1A2 came to 50 µM; at CYP2C9, 20 µM; on CYP2C19, 50 µM; on CYP2D6 it was 50 µM; against CYP3A4, 16 µM.
`CCOc1cc2c(cc1OC)-c1c/c(=N\c3c(C)cc(C)cc3C)n(CCNC(=O)c3c(O)nnn3C)c(=O)n1CC2` [WX036] had a clearance in data set [4] (setting [5]) of 70.3 mL/min/kg. The half-life in [4] (setting [5]) is 18 min. Moreover, in data set [4] (oral administration 3 mg/kg), the bioavailability was found to be 7.5%. For the same compound, the IC50 at CYP1A2, against CYP2C19, against CYP2D6 and on CYP3A4 was 50 µM throughout.
As to `CCOc1cc2c(cc1OC)-c1c/c(=N\c3c(C)cc(C)cc3C)n(CCNC(=O)c3nnc[nH]3)c(=O)n1CCC2` [WX047], in [3], the 50% inhibitory concentration (IC50) is 0.25 nM.
Still for that read-out and setting: as for `CCOc1cc2c(cc1OC)-c1c/c(=N\c3c(C)cc(C)cc3C)n(CCC(=O)Nc3nnc[nH]3)c(=O)n1CC2` [WX054], the figure is 1.8 nM.

Source of the values: US11993596B2, “Fused tri-cyclic compound as PDE3/PDE4 dual inhibitor” (CHIA TAI TIANQING PHARMACEUTICAL GROUP CO., LTD., priority 2018, dated 2024).
